Measurements from patent US7851474B2, “Dipiperazinyl ketones and related analogues” (Neurogen Corporation, priority 2005, dated 2010).

Molecular target: T1, chimeric human H3 receptor (Homo sapiens, UniProt Q9Y5N1, E19D)
T1 construct: made in house; host or cells: Sf9 insect cells (baculovirus infection); P2 membrane preparation
Test: Chimeric human H3 receptor GTP binding assay (agonist-stimulated GTP-gamma35S binding, Example 7)
Type: biochemical
Conditions: Table II "Ki", symbol "*": Ki in the assay of Example 7; read-out: Ki
How it was run: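 IC50 values come from non-linear regression of dose-response curves of filter-bound GTP-gamma^35S, counted by scintillation. Membranes were from infected Sf9 cells carrying receptor plus G-protein subunits, 35 μg/tube, with 10 μM GDP present.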

T1 sequence (Q9Y5N1 with tags, fused parts or gaps E19D): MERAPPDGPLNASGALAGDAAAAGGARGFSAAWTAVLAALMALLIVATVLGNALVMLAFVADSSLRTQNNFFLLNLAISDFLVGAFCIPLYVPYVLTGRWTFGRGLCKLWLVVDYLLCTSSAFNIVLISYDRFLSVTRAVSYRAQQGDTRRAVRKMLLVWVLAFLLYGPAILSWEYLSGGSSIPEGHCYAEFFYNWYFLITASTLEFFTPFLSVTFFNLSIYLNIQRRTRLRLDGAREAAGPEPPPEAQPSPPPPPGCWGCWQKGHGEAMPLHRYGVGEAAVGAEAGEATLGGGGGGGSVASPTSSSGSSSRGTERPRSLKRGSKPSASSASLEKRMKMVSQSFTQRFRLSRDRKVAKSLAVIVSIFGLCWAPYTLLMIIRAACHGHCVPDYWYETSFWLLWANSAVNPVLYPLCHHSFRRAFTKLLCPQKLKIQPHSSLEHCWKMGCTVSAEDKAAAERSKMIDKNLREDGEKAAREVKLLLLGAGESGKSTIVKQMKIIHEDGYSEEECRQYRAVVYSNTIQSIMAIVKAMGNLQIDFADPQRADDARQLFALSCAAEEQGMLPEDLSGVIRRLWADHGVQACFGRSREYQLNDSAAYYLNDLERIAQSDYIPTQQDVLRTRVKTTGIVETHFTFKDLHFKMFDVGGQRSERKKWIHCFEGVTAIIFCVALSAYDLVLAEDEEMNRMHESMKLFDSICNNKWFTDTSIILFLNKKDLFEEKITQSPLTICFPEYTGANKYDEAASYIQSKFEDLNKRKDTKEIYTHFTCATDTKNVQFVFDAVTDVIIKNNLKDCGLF

| Ki [nM] | SMILES |
| --- | --- |
| < 1000 | O=C(CN1CCN(c2cccc(-c3ccc(F)cc3)c2)CC1)N1CCN(C2CCC2)CC1 [Compound 773, 1-cyclobutyl-4-{[4-(4′-fluorobiphenyl-3-yl)piperazin-1-yl]acetyl}piperazine] |
| < 1000 | O=C(CN1CCN(c2ccc(-c3ccc(F)cc3)cc2)CC1)N1CCN(C2CCC2)CC1 [Compound 774, 1-cyclobutyl-4-{[4-(4′-fluorobiphenyl-4-yl)piperazin-1-yl]acetyl}piperazine] |
| < 1000 | O=C(CN1CCN(c2ccc(F)cc2)CC1)N1CCN(C2CCC2)CC1 [Compound 775, 1-cyclobutyl-4-{[4-(4-fluorophenyl)piperazin-1-yl]acetyl}piperazine] |
| < 1000 | CC(C)c1ccc(-c2ccc(N3CCN(CC(=O)N4CCN(C5CCC5)CC4)CC3)cc2)cc1 [Compound 778, 1-cyclobutyl-4-{[4-(4′-isopropylbiphenyl-4-yl)piperazin-1-yl]acetyl}piperazine] |
| < 1000 | COc1ccc(-c2ccc(N3CCN(CC(=O)N4CCN(C5CCC5)CC4)CC3)cc2)c(C)c1 [Compound 779, 1-cyclobutyl-4-{[4-(4′-methoxy-2′-methylbiphenyl-4-yl)piperazin-1-yl]acetyl}piperazine] |
| < 1000 | COc1ccc(-c2ccc(N3CCN(CC(=O)N4CCN(C5CCC5)CC4)CC3)cc2)cc1C [Compound 780, 1-cyclobutyl-4-{[4-(4′-methoxy-3′-methylbiphenyl-4-yl)piperazin-1-yl]acetyl}piperazine] |

Same assay, conditions: Table II, "*" in Ki; assay of Example 7; read-out: Ki

| SMILES | Ki [nM] |
| --- | --- |
| COc1cccc(-c2ccc(N3CCN(CC(=O)N4CCN(C5CCC5)CC4)CC3)cc2)c1 [Compound 758, 1-cyclobutyl-4-{[4-(3′-methoxybiphenyl-4-yl)piperazin-1-yl]acetyl}piperazine] | < 1000 |
| COc1cccc(N2CCN(CC(=O)N3CCN(C4CCC4)CC3)CC2)c1 [Compound 759, 1-cyclobutyl-4-{[4-(3-methoxyphenyl)piperazin-1-yl]acetyl}piperazine] | < 1000 |
| COC[C@H]1CCCN1C(=O)c1ccc(N2CCN(CC(=O)N3CCN(C4CCC4)CC3)CC2)cc1 [Compound 767, 1-cyclobutyl-4-{[4-(4-{[(2R)-2-(methoxymethyl)pyrrolidin-1-yl]carbonyl}phenyl)piperazin-1-yl]acetyl}piperazine] | < 1000 |
| COC[C@@H]1CCCN1C(=O)c1ccc(N2CCN(CC(=O)N3CCN(C4CCC4)CC3)CC2)cc1 [Compound 768, 1-cyclobutyl-4-{[4-(4-{[(2S)-2-(methoxymethyl)pyrrolidin-1-yl]carbonyl}phenyl)piperazin-1-yl]acetyl}piperazine] | < 1000 |
| CCc1ccc(-c2ccc(N3CCN(CC(=O)N4CCN(C5CCC5)CC4)CC3)cc2)cc1 [Compound 770, 1-cyclobutyl-4-{[4-(4′-ethylbiphenyl-4-yl)piperazin-1-yl]acetyl}piperazine] | < 1000 |

Other lines, results leading:

| Ki [nM] | SMILES |
| --- | --- |
| < 1000 | CC(C)c1cccc(-c2ccc(N3CCN(CC(=O)N4CCN(C5CCC5)CC4)CC3)cc2)c1 [Compound 756, 1-cyclobutyl-4-{[4-(3′-isopropylbiphenyl-4-yl)piperazin-1-yl]acetyl}piperazine] |
| < 1000 | Cc1cccc(-c2ccc(N3CCN(CC(=O)N4CCN(C5CCC5)CC4)CC3)cc2)c1 [Compound 762, 1-cyclobutyl-4-{[4-(3′-methylbiphenyl-4-yl)piperazin-1-yl]acetyl}piperazine] |
| < 1000 | Cc1cccc(N2CCN(CC(=O)N3CCN(C4CCC4)CC3)CC2)c1 [Compound 763, 1-cyclobutyl-4-{[4-(3-methylphenyl)piperazin-1-yl]acetyl}piperazine] |
| < 1000 | CCOc1ccc(-c2ccc(N3CCN(CC(=O)N4CCN(C5CCC5)CC4)CC3)cc2)cc1 [Compound 769, 1-cyclobutyl-4-{[4-(4′-ethoxybiphenyl-4-yl)piperazin-1-yl]acetyl}piperazine] |
| < 1000 | Cc1cc(-c2ccc(N3CCN(CC(=O)N4CCN(C5CCC5)CC4)CC3)cc2)ccc1F [Compound 771, 1-cyclobutyl-4-{[4-(4′-fluoro-3′-methylbiphenyl-4-yl)piperazin-1-yl]acetyl}piperazine] |
